Data as given in US5124334A, “Benzylalcohol phospholipase A2 inhibitors” (Du Pont Merck Pharmaceutical Company, priority 1989, dated 1992).
Counter-ions that a name gives are not always drawn.

System: inflammation induced by tetradecanoyl phorbol acetate (TPA)
Test: TPA inflammation inhibition test (TPA-induced mouse ear edema)
Format: in vivo, mice
Conditions: test compound 100 mg/ear applied topically, edema measured four hours later
Text: One such model is the inflammation induced by tetradecanoyl phorbol acetate (TPA), modified from the method of Kuehl et al., Nature, 1977, 265, 170; and Van Arman, Clin. Pharmacol. Ther., 1974, 16, 900. The TPA model mimics many of the inflammatory change which occur in human skin diseases such as psoriasis, since elevated levels of inflammatory arachidonic acid metabolites are found and an influx of polymorphonuclear leukocytes is observed. The test procedure used to evaluate the compounds of Formula (I) is as follows: the test compound (100 mg/ear) is applied to both ears of mice in an appropriate vehicle, such as acetone, and then the inflammatory stimulus (TPA) is applied to the right ear. Four hours later, the edema is measured by removing standard size discs from the ears using a biopsy punch. A control group of animals receives TPA in vehicle applied to the right ear, and vehicle alone to the left ear. The weights of the ear discs are determined, and the suppression of swelling observed in animals treated with the test compound is determined.

In the case of `CC(C)c1ccc2c(c1)CCC1C(C)(CNCCC(O)c3ccc(F)cc3)CCCC21C` (stereo not drawn) [Example 1, α-(2-[1,4a-Dimethyl-7-(2-propyl)-1,2,3,4,4a,9,10,10a-octahydro-1-phenanthren-1-yl]methylamino)ethyl)-4-fluorobenzenemethanol Hydrochloride], the “% Inhibition of Control Swelling” value is reported as 46%.
In the case of `CC(C)c1ccc2c(c1)CCC1C(C)(CNCCCC(O)c3ccc(F)cc3)CCCC21C.Cl` (stereo not drawn) [Example 2, α-(3-([1,4a-Dimethyl-1,2,3,4,4a,9,10,10a-octahydro-7-(2-propyl)-1-phenanthrenyl]methylamino)propyl)-4-fluorobenzenemethanol Hydrochloride], the “% Inhibition of Control Swelling” value is reported as 57%.
`COc1ccc(C(O)CCNCC2(C)CCCC3(C)c4ccc(C(C)C)cc4CCC23)cc1.Cl` (stereo not drawn) [Example 12, α-(2-([1,4a-Dimethyl-1,2,3,4,4a,9,10,10a-octahydro-7-(2-propyl)-1-phenanthrenyl]methylamino)-ethyl)-4-methoxybenzenemethanol Hydrochloride] was tested, and the “% Inhibition of Control Swelling” value was 27%.
